Results reported in PMC12040169 (PLOS Biology, 2025).

Assay: in vitro
Conditions: human, hela cells

Structure (SMILES)	viability at 28.5 h, 10 µM (% viability) [%]	further results
CC1CCCN(Cc2c(C3CCCNC3)[nH]c3ncccc23)C1 (stereo not drawn) [CBK285112]	70.3	–
Fc1ccc(CN2CCC(n3cnc4cccnc43)CC2)cc1 [CBK283580]	98.2	–
Cc1nccn1CCCNC(=O)c1cccc(N2CCCCC2)c1 [CBK281646]	91.4	–
CCOCCNC(=O)c1coc(COc2ccc3sc(C)nc3c2)n1 [CBK306805]	109	–
C#C[C@H]1C[N@@]2CC[C@H]1C[C@@H]2CNS(=O)(=O)c1ccc(NC(C)=O)cc1 [CBK288752]	103	–
CN(C)c1cccc(-c2cnc3[nH]c(=O)n(-c4ccc5[nH]ccc5c4)c3n2)c1 [CBK064682]	103	–
COc1ccc2[nH]cc(CCNC(=O)N(C)C3CCN(C)C3)c2c1 (stereo not drawn) [CBK156004]	112	–
CC(C)[C@@H](CO)NC(=O)c1cnc(-c2cccc(C(F)(F)F)c2)c(-c2cccnc2)c1 [CBK037520]	112	–
Nc1ccc(-c2cc(N)n(-c3ccc(Oc4ccccc4)c(S(=O)(=O)O)c3)n2)cc1 [CBK261563]	96.1	–
CC(C)Nc1cc(OC2CCOC2)ncn1 (stereo not drawn) [CBK115888]	93.4	–
CC(C)(C)c1cn(C[C@H]2CC3CCN2C[C@@H]3C(=O)NC2CCCCC2)nn1 (stereo partly drawn) [CBK289085]	83.9	–
Cc1ccnc(N2C(=O)c3ccc(C(=O)c4ccc5c(c4)C(=O)N(c4cc(C)ccn4)C5=O)cc3C2=O)c1 [CBK263041]	93.4	–
CCOc1nc2c(c(C(F)(F)F)n1)CC(C)C/C2=C\c1ccccc1 (stereo not drawn) [CBK265800]	94.8	–
N#CC1(NC(=O)c2ccn(-c3cccc(F)c3)n2)CCSC1 (stereo not drawn) [CBK304566]	106	–
COc1cc2c(cc1OC)C(c1ccc(C(=O)O)cc1)NCC2 (stereo not drawn) [CBK286738]	90.2	–
O=C(NCCc1c[nH]c2ccccc12)c1cc2c(ccc3ccccc32)oc1=O [CBK264550]	91.5	–
CCCC[C@H]1CC[C@H](C(=O)Oc2ccc(OC(C)C(=O)O)cc2)CC1 (stereo partly drawn) [CBK160854]	93.8	–
COc1cccc(Oc2nccnc2-c2ccc(F)cc2)c1 [CBK106897]	93.5	–
COc1ccc2[nH]cc(CCNC(=O)/C=C/c3ccc(C(C)C)cc3)c2c1 [CBK149639]	91.7	–
Cc1nc(S(=O)(=O)Nc2ccc3[nH]ccc3c2)cn1C [CBK156800]	68.3	–
Cc1[nH]c(=O)[nH]c(=O)c1CC(=O)N1Cc2cc(Cl)ccc2OC2(CCOCC2)C1 [CBK286341]	93	–
O=C(Cc1ccncc1)NC1Cc2ccccc2C1 [CBK200351]	94.1	–

Structure (SMILES)	viability at 28.5 h, 10 µM (% viability) [%]	further results
Cc1c(NC(=O)c2cn3c4c(c(N5CCN(C)CC5)c(F)cc4c2=O)OCN3C)c(=O)n(-c2ccccc2)n1C [CBK263061]	92.9	–
O=C(NCc1nnc(-c2cccs2)o1)C1(c2ccccc2)CC1 [CBK284635]	96.2	–
CN1CCN(Cc2n[nH]c(=S)n2-c2cccc(C#N)c2)CC1 [CBK015465]	112	–
CC(CCN(CCN)C(=O)N1CCC(CNS(C)(=O)=O)(c2ccccc2)CC1)c1ccccc1 (stereo not drawn) [CBK002335C]	82.9	–
O=C(O)C1CCCN(C(=O)NCC2COc3ccccc3O2)C1 (stereo not drawn) [CBK161342]	121	–
O=C(O)c1ccc(NC(=O)c2cccc(-n3cnnc3)c2)cc1 [CBK270134]	104	–
COc1cc(-c2nccnc2NCc2ccccn2)cc(OC)c1OC [CBK036936]	96.8	–
CCCCN(C)S(=O)(=O)NCc1cn2ccccc2n1 [CBK306329]	97.9	–
O=C(/C=C/c1ccc(Cl)cc1Cl)NC(=S)Nc1ccccc1F [CBK264332]	108	–
CSc1nc(C)cc(OCC(=O)Nc2ccc(Cl)cc2)n1 [CBK267525]	94.8	–
COc1ccc(CN2C(=O)CO[C@H]3CN(c4nccc(C)n4)C[C@H]32)cc1 [CBK289056]	86.1	–
Cc1noc(C)c1NC(=O)c1cnccn1 [CBK200390]	89.9	–
COc1cccc(-c2nccc3ccn(CC(=O)N4CC=CCC4)c23)c1 [CBK284806]	104	–
COc1ccc(Cl)cc1CN(C)C(=O)c1cc(C(C)C)n2ncnc2n1 [CBK307331]	84.7	–
CCCn1c(O)cc(=O)nc1SCC(=O)NCc1ccc(OC)c(OC)c1 [CBK295592]	101	–
Cc1cc(NC(=O)c2ccc(S(=O)(=O)N3CCOCC3)cc2)nc2c1c(=O)oc1ccccc12 [CBK291134]	106	–
CC(=O)NC(NC(=S)Nc1sc2c(c1C#N)CCCC2)C(Cl)(Cl)Cl (stereo not drawn) [CBK261053]	99.2	–
Cc1nc(Nc2ccc(Cl)cc2)nc(OC2CCNCC2)n1 [CBK024848]	90.5	–
CC(=O)NC[C@H]1CN(c2ccc(-c3nnc(C(C)O)s3)c(F)c2)C(=O)O1 (stereo partly drawn) [CBK017968]	99.6	–
Cc1cc(C)n(CCNCc2cc(-c3ccccc3)c[nH]c2=O)n1 [CBK284770]	101	–
CC(C)(O)C(=O)NCc1nc2c(s1)CC(c1ccccc1)CC2 (stereo not drawn) [CBK304165]	77.3	–
CCC(O)Cn1nc(CCSC)nc1-c1cc(=O)n(C)c2ccccc12 (stereo not drawn) [CBK306596]	83.6	–

Structure (SMILES)	viability at 28.5 h, 10 µM (% viability) [%]	further results
CCC1(CC)OC(NC23CC4CC(CC(O)(C4)C2)C3)=NC1=O [CBK107938]	99.1	–
CCn1c(SCC(=O)Nc2ccc(N3CCOCC3)cc2)nnc1-c1ccncc1 [CBK269765]	89.7	–
O=C(Nc1ccc(OC(=O)N2CCCCC2)cc1)N1CCCCC1 [CBK090060]	–	viability at 28.5 h, 10 µM: 88.6%
Cc1sc(C(=O)Nc2ccc3ccccc3c2)cc1CC(=O)O [CBK267710]	96.4	–
Oc1ccccc1CN1CCN(Cc2ccccc2O)C1c1ccccc1Br [CBK262050]	98.1	–
c1ccc2nc(N3CCCC3)c(SCCc3cnccn3)nc2c1 [CBK103695]	106	–
Cc1onc(-c2ccccc2)c1C(=O)NCCCn1ccnc1 [CBK262870]	96.2	–
Cn1c2ccccc2c2ncn(CCCO)c(=O)c21 [CBK287951]	56.9	–
COc1ccc([C@@]23CC[C@@H](NC(=O)c4ccc(F)c(F)c4)C[C@@H]2CN(C)C3)cc1OC [CBK083504T]	90.2	–
CSCCOc1nccnc1N1CCCC1 [CBK115757]	120	–
CCc1nn(CCN2CCCC2)c(=O)c2cc3sc(C)cc3n12 [CBK284098]	88.5	–
CCOC(=O)C(C)N1C(=O)S/C(=C/c2cc(C)n(-c3ccncc3)c2C)C1=O (stereo not drawn) [CBK265145]	99.9	–
Cc1cn(CC(=O)N2CCC3(CCCNC3)C2)c(=O)[nH]c1=O (stereo not drawn) [CBK153231C]	95.9	–
CCN(CC)CCCCC1(C)SC(NC2CCCCCC2)=NC1=O (stereo not drawn) [CBK113257]	96.9	–
Cc1cc(CNC(=O)c2ccc3c(c2)OCO3)c2ccccc2n1 [CBK270014]	72.1	–
Nc1ncc(-c2ccc3c(c2)OCO3)nc1NCc1ccncc1 [CBK063483]	106	–
Cc1cc2oc(C(=O)Nc3sc4c(c3C#N)CCCC4)c(C)c2cc1C [CBK266301]	103	–
Cn1nc(-c2cccs2)cc1[C@H]1CN2CC[C@H]1C[C@@H]2CNC(=O)Nc1ccccc1 [CBK289104]	89	–
COc1ccccc1CCNCc1ccc([N+](=O)[O-])cc1 [CBK262292]	–	viability at 28.5 h, 10 µM (% viability, bulk resorufin, single well): 93.3%
COc1ccc(-c2nc(O)cc(C(F)(F)F)n2)cc1 [CBK003515]	86.3	–
N#Cc1c(N)nc(SCC(=O)c2cc3ccccc3oc2=O)c(C#N)c1-c1ccc(O)cc1 [CBK261269]	103	–
COc1ccc2[nH]cc(CCNC(=O)c3cc(-c4cccc(NC(C)=O)c4)cnc3N(C)S(C)(=O)=O)c2c1 [CBK076599]	101	–

Structure (SMILES)	viability at 28.5 h, 10 µM (% viability) [%]	further results
N#Cc1nccnc1NCc1ccccc1CN1CCCC1CO (stereo not drawn) [CBK306418]	102	–
CC(=O)Nc1ccc(S(=O)(=O)NC2(C(F)(F)F)C(=O)Nc3c2c(=O)[nH]c(=O)n3CCc2ccccc2)cc1 (stereo not drawn) [CBK267937]	104	–
Cc1nc(-c2ccc(S(=O)(=O)NCC3CC3)s2)cs1 [CBK085873]	83.9	–
c1ccc2nc(N3CCCC3)c(OCc3ccsc3)nc2c1 [CBK115819]	90.2	–
CSc1ncc(CNCc2ccc3c(c2)OCO3)c(N)n1 [CBK074563]	89.6	–
COc1cccc(C(=O)NCCC(=O)N2CCc3sccc3C2)c1 [CBK305376]	108	–
Cc1nn(C)c(Cl)c1CN(CCC#N)Cc1ccco1 [CBK304825]	96.6	–
O=C1NCCCC12CCN(Cc1cccc3cccnc13)CC2 [CBK284826]	92.3	–
CCCC/C=C/c1nccnc1N(C)Cc1ccccc1 [CBK037412]	99.8	–
CN(C)C(=O)CCNC(=O)c1ccc2c(c1)nc(N1CC[C@H](O)C1)n2C [CBK306671]	92.4	–
Cc1sc(NC(=O)c2cc(-c3ccncc3)nc3ccc(Cl)cc23)c(C#N)c1C [CBK267742]	87.7	–
Cc1ccc(-n2c(SCC(=O)Nc3sc4c(c3C#N)CCCC4)nnc2-c2ccccc2O)c(C)c1 [CBK268692]	77.9	–
O=C(NCC(=O)N1CCCC1c1cccs1)c1cccc(Br)c1 (stereo not drawn) [CBK305655]	99.2	–
O=C(Cc1cc(F)c(F)c(F)c1)Nc1cnccn1 [CBK161764]	90.1	–
Cc1cc(C(=O)N2Cc3ccccc3C2)n[nH]1 [CBK200328]	100	–
O[C@H]1[C@H](NCc2ccco2)[C@H]2CO[C@H](O2)[C@@H]1N1CCC(Cc2ccccc2)CC1 [CBK288815]	99.1	–
CN(C)CCN(C)C(=O)Cc1csc(-c2ccccc2F)n1 [CBK282173]	112	–
O=C(CN1CCC(Cc2ccccc2)CC1)Nc1ccc(S(=O)(=O)N2CCOCC2)cc1 [CBK268451]	102	–
Cc1ccccc1OCC(=O)Nc1ccc(C(=O)O)c(Cl)c1 [CBK287027]	83.6	–
CC(C)(c1ccc(Oc2cccc(N)c2)cc1)c1ccc(Oc2cccc(N)c2)cc1 [CBK260958]	109	–
CNC(=O)C1CCN(Cc2ccc(-c3nnn(CC(=O)NCc4ccc(C)cc4)n3)cc2)CC1 [CBK153195T]	96.1	–
